Source: patent publication US20220128542A1, “TREATMENT EFFICIENCY EVALUATION” (TX MEDIC AB, priority 2019, published 2022)
Marks after values point to notes of the source that are not given here.

Test system: brain of rats subjected to severe traumatic brain injury (sTBI)
Assay: HPLC of free amino acids and amino group containing compounds in brain after sTBI (Example 1)
Assay type: in vivo, rat
Method: They were divided into three groups:
1) n=6 animals subjected to sTBI, with drug administration after 30 minutes and sacrifice at 2 days post-TBI (Acute phase 1)
2) n=6 animals subjected to sTBI, with drug administration after 30 minutes and sacrifice at 7 days post-TBI (Acute phase 2).
3) n=6 animals subjected to sTBI, with drug administration after 3 days and sacrifice at 7 days post-TBI (Chronic phase).
The drug treatment was a subcutaneous injection of 0.5 ml of LMW-DS (15 mg/kg) and administered according to the aforementioned schematic protocol.
After the wet weight (w.w.) determination, tissue preparation was affected as previously disclosed (Tavazzi et al., Neurosurgery. 2005; 56: 582-589; Vagnozzi et al., Neurosurgery. 2007; 61: 379-388; Tavazzi et al., Neurosurgery. 2007; 61: 390-395; Amorini et al., J Cell Mol Med. 2017; 21: 530-542.). Briefly, whole brain homogenization was performed with 7 ml of ice-cold, nitrogen-saturated, precipitating solution composed by CH3CN+10 mM KH2PO4, pH 7.40, (3:1; v:v), and using an Ultra-Turrax set at 24,000 rpm/min (Janke & Kunkel, Staufen, Germany). After centrifugation at 20,690×g, for 10 min at 4° C., the clear supernatants were saved, pellets were supplemented with 3 ml of the precipitating solution and homogenized again as described above. A second centrifugation was performed (20,690×g, for 10 min at 4° C.), pellets were saved, supernatants combined with those previously obtained, extracted by vigorous agitation with a double volume of HPLC-grade CHCl3 and centrifuged as above. The upper aqueous phases containing water-soluble low-molecular weight compounds were collected, subjected to chloroform washings for two more times (this procedure allowed the removal of all the organic solvent and of any lipid soluble compound from the buffered tissue extracts), adjusted in volumes with 10 mM KH2PO4, pH 7.40, to have ultimately aqueous 10% tissue homogenates and saved at −80° C. until assayed.
The simultaneous determination of primary free amino acids (FAA) and amino group containing compounds (AGCC) (listed below) was performed using the precolumn derivatization of the sample with a mixture of Ortho-phthalaldehyde (OPA) and 3-Mercaptopropionic acid (MPA), as described in detail elsewhere (Amorini et al., J Cell Mol Med. 2017; 21: 530-542; Amorini et al., Mol Cell Biochem. 2012; 359: 205-216). […] The automated precolumn derivatization of the samples (15 μl) with OPA-MPA was carried out at 24° C. and 25 μl of the derivatized mixture were loaded onto the HPLC column (Hypersil C-18, 250×4.6 mm, 5 μm particle size, thermostated at 21° C.) for the subsequent chromatographic separation. In the case of glutamate, deproteinized brain extracts were diluted 20 times with HPLC-grade H2O prior to the derivatization procedure and subsequent injection. Separation of OPA-AA and OPA-AGCC was carried out at a flow rate of 1.2 ml/min using two mobile phases (mobile phase A=24 mmol/l CH3COONa+24 mmol/l Na2HPO4+1% tetrahydrofurane+0.1% trifluoroacetic acid, pH 6.5; mobile phase B=40% CH3OH+30% CH3CN+30% H2O), using an appropriate step gradient (Amorini et al., J Cell Mol Med. 2017; 21: 530-542; Amorini et al., Mol Cell Biochem. 2012; 359: 205-216).
Assignment and calculation of the OPA-AA and OPA-AGCC in chromatographic runs of whole brain extracts were carried out at 338 nm wavelengths by comparing retention times and areas of peaks with those of peaks of chromatographic runs of freshly-prepared ultra-pure standard mixtures with known concentrations. […]

[1] = Acute phase 1: 15 mg/kg s.c. 30 min post-sTBI, sacrifice day 2
[2] = Acute phase 2: 15 mg/kg s.c. 30 min post-sTBI, sacrifice day 7
[3] = Chronic phase: 15 mg/kg s.c. 3 days post-sTBI, sacrifice day 7

## sodium salt of dextran sulfate [LMW-DS]
15 mg/kg s.c. early post-injury (30 min following sTBI)
  effect on sTBI-induced increase in glutamate (GLU): remarkable inhibition
15 mg/kg s.c. injected at 3 days after sTBI
  effect on glutamate excitotoxicity marker: no efficacy
[1]
  ALA cerebral concentration: 0.50 ± 0.12^a μmol/g (w.w.)
  ARG cerebral concentration: 0.13 ± 0.02^b, d μmol/g (w.w.)
  ASN cerebral concentration: 0.12 ± 0.02^i μmol/g (w.w.)
  ASP cerebral concentration: 2.40 ± 0.56^d, i μmol/g (w.w.)
  CITR cerebral concentration: 0.018 ± 0.004 µmol/g (w.w.)
  GABA cerebral concentration: 1.43 ± 0.25^a μmol/g (w.w.)
  GLN cerebral concentration: 4.78 ± 1.09^a μmol/g (w.w.)
  GLU cerebral concentration: 9.81 ± 1.66^i μmol/g (w.w.)
  GLY cerebral concentration: 0.83 ± 0.25^a, c μmol/g (w.w.)
  HIS cerebral concentration: 0.068 ± 0.015^b μmol/g (w.w.)
  ILE cerebral concentration: 0.038 ± 0.007 µmol/g (w.w.)
  L-Cystat cerebral concentration: 0,185 ± 0.031^b, c, i μmol/g (w.w.)
  LEU cerebral concentration: 0.021 ± 0.005^a, c μmol/g (w.w.)
  LYS cerebral concentration: 0.236 ± 0.057^b, d, h μmol/g (w.w.)
  MET cerebral concentration: 0.016 ± 0.005^d, j μmol/g (w.w.)
  ORN cerebral concentration: 0.014 ± 0.007 µmol/g (w.w.)
  PHE cerebral concentration: 0.031 ± 0.011^b, d μmol/g (w.w.)
  SAH cerebral concentration: 0.033 ± 0.008^b, c, j μmol/g (w.w.)
  SER cerebral concentration: 0.88 ± 0.25^a μmol/g (w.w.)
  TAU cerebral concentration: 4.86 ± 0.85^b μmol/g (w.w.)
  THR cerebral concentration: 0.92 ± 0.29^a μmol/g (w.w.)
  TRP cerebral concentration: 0.030 ± 0.007^b, dg, i μmol/g (w.w.)
  TYR cerebral concentration: 0.15 ± 0.03 µmol/g (w.w.)
  VAL cerebral concentration: 0.042 ± 0.011 µmol/g (w.w.)
[2]
  ALA cerebral concentration: 0.52 ± 0.24^a, e μmol/g (w.w.)
  ARG cerebral concentration: 0.16 ± 0.03 µmol/g (w.w.)
  ASN cerebral concentration: 0.13 ± 0.03^i μmol/g (w.w.)
  ASP cerebral concentration: 2.94 ± 0.98^f, j μmol/g (w.w.)
  CITR cerebral concentration: 0.018 ± 0.008 µmol/g (w.w.)
  GABA cerebral concentration: 1.60 ± 0.24^a μmol/g (w.w.)
  GLN cerebral concentration: 3.66 ± 0.41 µmol/g (w.w.)
  GLU cerebral concentration: 9.93 ± 1.56^e, i μmol/g (w.w.)
  GLY cerebral concentration: 0.71 ± 0.16^f, i μmol/g (w.w.)
  HIS cerebral concentration: 0.055 ± 0.019 µmol/g (w.w.)
  ILE cerebral concentration: 0.048 ± 0.017^a μmol/g (w.w.)
  L-Cystat cerebral concentration: 0.173 ± 0.038^b, f, i μmol/g (w.w.)
  LEU cerebral concentration: 0.018 ± 0.004 µmol/g (w.w.)
  LYS cerebral concentration: 0.32 ± 0.04^a, e, i μmol/g (w.w.)
  MET cerebral concentration: 0.022 ± 0.006^b, e, i μmol/g (w.w.)
  ORN cerebral concentration: 0.011 ± 0.005 µmol/g (w.w.)
  PHE cerebral concentration: 0.028 ± 0.010 µmol/g (w.w.)
  SAH cerebral concentration: 0.026 ± 0.010^f, i μmol/g (w.w.)
  SER cerebral concentration: 0.71 ± 0.28^b μmol/g (w.w.)
  TAU cerebral concentration: 3.80 ± 1.19 µmol/g (w.w.)
  THR cerebral concentration: 0.66 ± 0.23 µmol/g (w.w.)
  TRP cerebral concentration: 0.015 ± 0.006 µmol/g (w.w.)
  TYR cerebral concentration: 0.172 ± 0.046^b, f μmol/g (w.w.)
  VAL cerebral concentration: 0.057 ± 0.017 µmol/g (w.w.)
[3]
  ALA cerebral concentration: 0.57 ± 0.28^a, e μmol/g (w.w.)
  ARG cerebral concentration: 0.14 ± 0.02 µmol/g (w.w.)
  ASN cerebral concentration: 0.18 ± 0.02^a μmol/g (w.w.)
  ASP cerebral concentration: 4.46 ± 0.70^a, f μmol/g (w.w.)
  CITR cerebral concentration: 0.020 ± 0.006 µmol/g (w.w.)
  GABA cerebral concentration: 1.85 ± 0.65^a μmol/g (w.w.)
  GLN cerebral concentration: 3.98 ± 0.34 µmol/g (w.w.)
  GLU cerebral concentration: 13.58 ± 1.28^a μmol/g (w.w.)
  GLY cerebral concentration: 1.05 ± 0.13^a, f μmol/g (w.w.)
  HIS cerebral concentration: 0.047 ± 0.021 µmol/g (w.w.)
  ILE cerebral concentration: 0.041 ± 0.016^b μmol/g (w.w.)
  L-Cystat cerebral concentration: 0.26 ± 0.05^a, f μmol/g (w.w.)
  LEU cerebral concentration: 0.024 ± 0.032^b, f μmol/g (w.w.)
  LYS cerebral concentration: 0.179 ± 0.036 µmol/g (w.w.)
  MET cerebral concentration: 0.009 ± 0.004^b μmol/g (w.w.)
  ORN cerebral concentration: 0.017 ± 0.009^a, e μmol/g (w.w.)
  PHE cerebral concentration: 0.033 ± 0.011^b μmol/g (w.w.)
  SAH cerebral concentration: 0.050 ± 0.013^a μmol/g (w.w.)
  SER cerebral concentration: 0.93 ± 0.27^a, e μmol/g (w.w.)
  TAU cerebral concentration: 4.49 ± 0.43^a μmol/g (w.w.)
  THR cerebral concentration: 0.75 ± 0.24^a, e μmol/g (w.w.)
  TRP cerebral concentration: 0.012 ± 0.007 µmol/g (w.w.)
  TYR cerebral concentration: 0.21 ± 0.05^f μmol/g (w.w.)
  VAL cerebral concentration: 0.040 ± 0.016^b μmol/g (w.w.)
